Data set [1] has as its target Wnt-responsive promoter (TCF/LEF). The data set can be described thus: Wnt-dependent luciferase reporter assay. Type of data set: cell-based, murine. The gist of the method:
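Murine 3T3 fibroblasts carrying a TCF/LEF-driven luciferase reporter, stimulated with Wnt3a in the presence of increasing peptide concentrations or vehicle. Luminescence inhibition gave EC50 values in uM.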
In general terms: A reporter such as luciferase makes a cellular process visible.

The conditions of data set [2]: % Viability non-Wnt responsive cells.
The next data set deals with T1, β-catenin (Homo sapiens, UniProt P35222).
T1 sequence (P35222 1-781): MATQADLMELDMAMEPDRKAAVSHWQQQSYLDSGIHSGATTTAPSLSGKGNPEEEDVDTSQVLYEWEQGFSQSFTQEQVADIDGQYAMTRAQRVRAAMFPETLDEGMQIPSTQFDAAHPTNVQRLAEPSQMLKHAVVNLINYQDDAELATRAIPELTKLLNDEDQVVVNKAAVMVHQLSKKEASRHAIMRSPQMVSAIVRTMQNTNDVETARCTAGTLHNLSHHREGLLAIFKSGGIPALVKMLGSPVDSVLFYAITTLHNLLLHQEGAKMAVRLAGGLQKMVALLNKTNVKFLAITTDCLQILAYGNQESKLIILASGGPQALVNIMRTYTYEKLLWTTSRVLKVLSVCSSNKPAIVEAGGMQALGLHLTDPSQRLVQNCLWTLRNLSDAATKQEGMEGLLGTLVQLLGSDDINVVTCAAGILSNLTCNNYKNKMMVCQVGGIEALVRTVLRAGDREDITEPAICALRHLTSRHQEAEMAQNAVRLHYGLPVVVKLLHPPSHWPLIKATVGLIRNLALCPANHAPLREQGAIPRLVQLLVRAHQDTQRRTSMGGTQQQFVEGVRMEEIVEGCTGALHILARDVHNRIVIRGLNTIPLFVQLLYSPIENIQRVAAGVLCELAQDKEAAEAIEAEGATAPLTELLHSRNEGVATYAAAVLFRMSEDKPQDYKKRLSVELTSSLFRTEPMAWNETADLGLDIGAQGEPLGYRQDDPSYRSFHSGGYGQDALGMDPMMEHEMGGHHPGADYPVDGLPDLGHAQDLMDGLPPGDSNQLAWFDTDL
Description: KD50 measurement using competitive fluorescence polarization (FP) with labelled TCF4. Type of data set: binding. Conditions: fluorescence polarization, β-catenin; for Kd: read-out: β-Cat FP KD. An outline of the steps:
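5 nM labelled TCF4 was combined with 100 nM β-catenin at room temperature, then inhibitor was titrated in serial dilutions from 10 nM to 30 uM. Polarization was read at excitation 470 nm, emission 520 nm; displacement lowers the signal. Three independent experiments.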
(In general: Fluorescence polarisation rises when a labelled molecule tumbles more slowly, as on binding a larger partner.)

From US12441768B2, “Compositions and methods for treating endometriosis” (EndoMet Biosciences, Inc., priority 2018, dated 2025) come the findings set out here.

Where a SMILES comes first, the peptide text is derived from it.

Regarding `CC[C@H](C)[C@H](NC(=O)[C@H](CC(C)C)NC(=O)[C@H](Cc1ccccc1)NC(=O)[C@H](Cc1c[nH]c2ccccc12)NC(=O)[C@@H](N)CCSC)C(=O)N[C@@H](CO)C(=O)N[C@@H](Cc1ccccc1)C(=O)N[C@@H](C)C(=O)NCC(=O)O` [compound 161] (H-MWFLISFAG-OH), the concentration giving a half-maximal response (EC50) in data set [1] was 15 to 22.5 µM. For the same compound, in data set [2], the viability was 103%. The Kd at β-catenin was more than 30 µM.
Compound `CC[C@H](C)[C@H](NC(=O)[C@H](CC(C)C)NC(=O)[C@H](Cc1ccccc1)NC(=O)[C@H](Cc1c[nH]c2ccccc12)NC(=O)[C@@H](N)CCSC)C(=O)N[C@@H](CO)C(=O)N[C@@H](Cc1ccccc1)C(=O)N[C@@H](Cc1c[nH]c2ccccc12)C(=O)N[C@@H](C)C(=O)O` [compound 162] (H-MWFLISFWA-OH) displayed an EC50 in data set [1] of 7.5 to 15 µM. The viability in data set [2] was determined as 104%. On β-catenin, the Kd is more than 30 µM.
Consider `CC[C@H](C)[C@H](NC(=O)[C@H](CC(C)C)NC(=O)[C@H](Cc1ccccc1)NC(=O)[C@H](Cc1c[nH]c2ccccc12)NC(=O)[C@@H](N)CCSC)C(=O)N[C@@H](Cc1c[nH]cn1)C(=O)N[C@@H](Cc1ccccc1)C(=O)N[C@@H](Cc1c[nH]c2ccccc12)C(=O)NCC(=O)O` [compound 163] (H-MWFLIHFWG-OH), for which, in data set [1], the EC50 was less than 7.5 µM. The viability in data set [2] is 100%. Further, on β-catenin, the Kd is more than 30 µM.
As for `CCCC[C@H](N)C(=O)N[C@@H](Cc1c[nH]c2ccccc12)C(=O)N[C@@H](Cc1ccccc1)C(=O)N[C@@H](CC(C)C)C(=O)N[C@H](C(=O)N[C@@H](CS)C(=O)N[C@@H](Cc1ccccc1)C(=O)N[C@@H](Cc1c[nH]c2ccccc12)C(=O)NCC(=O)O)[C@@H](C)CC` [compound 164] (HELM PEPTIDE1{[Nle].W.F.L.I.C.F.W.G}$$$$V2.0), in data set [1], the EC50 was less than 7.5 µM. Moreover, the viability in data set [2] was found to be 100%. Moreover, at β-catenin, the “β-Cat FP Hill slope” value is on record as 0.7 and the equilibrium dissociation constant (Kd) fell in the range of 0.4 to 1 µM.
For the compound `CC[C@H](C)[C@H](NC(=O)[C@H](CC(C)C)NC(=O)[C@@H](NC(=O)[C@H](Cc1c[nH]c2ccccc12)NC(=O)[C@H](CCSC)NC(C)=O)[C@@H](C)CC)C(=O)N[C@@H](CO)C(=O)N[C@@H](Cc1ccccc1)C(=O)N[C@@H](Cc1c[nH]c2ccccc12)C(=O)NCC(=O)O` [compound 165] (Ac-MWILISFWG-OH), the EC50 in data set [1] was less than 7.5 µM. In addition, in data set [2], the viability stood at 102%. Also, on β-catenin, the “β-Cat FP Hill slope” value is 2.99 and the Kd is less than 0.4 µM.
In turn, `CC[C@H](C)[C@H](NC(=O)[C@H](CC(C)C)NC(=O)[C@H](Cc1ccccc1)NC(=O)[C@H](Cc1c[nH]c2ccccc12)NC(=O)[C@H](CCSC)NC(=O)[C@H](CCCNC(=N)N)NC(=O)[C@@H](NC(=O)[C@@H](N)CCSC)[C@@H](C)CC)C(=O)N[C@@H](CS)C(=O)N[C@@H](C)C(=O)N[C@@H](Cc1c[nH]c2ccccc12)C(=O)NCC(=O)O` [compound 166] (H-MIRMWFLICAWG-OH) returned an EC50 in data set [1] of more than 30 µM. Also, in data set [2], the viability came to 100%. In addition, at β-catenin, the Kd is more than 30 µM.
Regarding `CC[C@H](C)[C@@H]1NC(=O)[C@H](CC(C)C)NC(=O)[C@H](Cc2ccccc2)NC(=O)[C@H](Cc2c[nH]c3ccccc23)NC(=O)[C@H](CCSC)NC(=O)[C@@H](N)CCCCNC(=O)C[C@@H](C(=O)O)NC(=O)[C@H](Cc2c[nH]c3ccccc23)NC(=O)[C@H](C)NC(=O)[C@H](CS)NC1=O` [compound 167] (HELM PEPTIDE1{K.M.W.F.L.I.C.A.W.D}$PEPTIDE1,PEPTIDE1,1:R3-10:R3$$$V2.0), in data set [1], the EC50 is 7.5 to 15 µM. In data set [2], the viability was 98.8%. In addition, at β-catenin, the “β-Cat FP Hill slope” value came to 0.7 and the Kd is 1 to 10 µM.
The like results for `CC[C@H](C)[C@@H]1NC(=O)[C@H](CC(C)C)NC(=O)[C@H](Cc2ccccc2)NC(=O)[C@H](Cc2c[nH]c3ccccc23)NC(=O)[C@@H](N)CCCCNC(=O)C[C@@H](C(=O)O)NC(=O)[C@H](Cc2c[nH]c3ccccc23)NC(=O)[C@H](C)NC(=O)[C@H](CS)NC1=O` [compound 168] (HELM PEPTIDE1{K.W.F.L.I.C.A.W.D}$PEPTIDE1,PEPTIDE1,1:R3-9:R3$$$V2.0) were, in that order, less than 7.5 µM, 99.1%, 0.7 and 1 to 10 µM.
The compound `CC[C@H](C)[C@@H]1NC(=O)[C@H](CC(C)C)NC(=O)[C@H](Cc2ccccc2)NC(=O)[C@H](Cc2c[nH]c3ccccc23)NC(=O)[C@@H](NC(C)=O)CCCCNC(=O)C[C@@H](C(=O)O)NC(=O)[C@H](Cc2c[nH]c3ccccc23)NC(=O)[C@H](C)NC(=O)[C@H](CS)NC1=O` [compound 169] (HELM PEPTIDE1{[ac].K.W.F.L.I.C.A.W.D}$PEPTIDE1,PEPTIDE1,2:R3-10:R3$$$V2.0) returned a 50% effective concentration (EC50) in data set [1] of less than 7.5 µM. Moreover, the viability in data set [2] came out at 93.5%. Also, at β-catenin, the “β-Cat FP Hill slope” value stood at 0.7 and the Kd was 1 to 10 µM.
The like results for `CC[C@H](C)[C@@H]1NC(=O)[C@H](CC(C)C)NC(=O)[C@H](Cc2ccccc2)NC(=O)[C@H](Cc2c[nH]c3ccccc23)NC(=O)[C@H](CCSC)NC(=O)[C@@H](N)CCCCNC(=O)C[C@@H](C(=O)O)NC(=O)[C@H](Cc2c[nH]c3ccccc23)NC(=O)[C@H](Cc2ccccc2)NC(=O)[C@H](CS)NC1=O` [compound 170] (HELM PEPTIDE1{K.M.W.F.L.I.C.F.W.D}$PEPTIDE1,PEPTIDE1,1:R3-10:R3$$$V2.0) were, in that order, 15 to 22.5 µM, 107%, 0.7 and 1 to 10 µM.
Compound `CC[C@H](C)[C@@H]1NC(=O)[C@H](CC(C)C)NC(=O)[C@H](Cc2ccccc2)NC(=O)[C@H](Cc2c[nH]c3ccccc23)NC(=O)[C@H](CCSC)NC(=O)[C@@H](N)CCCCNC(=O)C[C@@H](C(=O)O)NC(=O)[C@H](Cc2c[nH]c3ccccc23)NC(=O)[C@H](Cc2ccccc2)NC(=O)[C@H](CO)NC1=O` [compound 171] (HELM PEPTIDE1{K.M.W.F.L.I.S.F.W.D}$PEPTIDE1,PEPTIDE1,1:R3-10:R3$$$V2.0) displayed an EC50 in data set [1] of less than 7.5 µM. The viability in data set [2] was found to be 79.6%. On β-catenin, the “β-Cat FP Hill slope” value is recorded as 0.7 and the Kd was in the range of 1 to 10 µM.
On to `CC[C@H](C)[C@@H]1NC(=O)[C@H](CC(C)C)NC(=O)[C@H](Cc2ccccc2)NC(=O)[C@H](Cc2c[nH]c3ccccc23)NC(=O)[C@@H](N)CCCCNC(=O)C[C@@H](C(=O)O)NC(=O)[C@H](Cc2c[nH]c3ccccc23)NC(=O)[C@H](Cc2ccccc2)NC(=O)[C@H](CS)NC1=O` [compound 172] (HELM PEPTIDE1{K.W.F.L.I.C.F.W.D}$PEPTIDE1,PEPTIDE1,1:R3-9:R3$$$V2.0), for which, in data set [1], the EC50 was less than 7.5 µM. Further, the viability in data set [2] is 90.8%. For the same compound, on β-catenin, the “β-Cat FP Hill slope” value was determined as 0.7 and the Kd is 1 to 10 µM.
For `CC[C@H](C)[C@@H]1NC(=O)[C@H](CC(C)C)NC(=O)[C@H](Cc2ccccc2)NC(=O)[C@H](Cc2c[nH]c3ccccc23)NC(=O)[C@@H](N)CCCCNC(=O)CC[C@@H](C(=O)N[C@@H](Cc2c[nH]c3ccccc23)C(=O)NCC(=O)O)NC(=O)[C@H](CS)NC1=O` [compound 173] (HELM PEPTIDE1{K.W.F.L.I.C.E.W.G}$PEPTIDE1,PEPTIDE1,1:R3-7:R3$$$V2.0), the EC50 in data set [1] is more than 30 µM. In addition, the viability in data set [2] is 107%. Further, the “β-Cat FP Hill slope” value on β-catenin came to 0.7.
`CC[C@H](C)[C@@H]1NC(=O)[C@H](CC(C)C)NC(=O)[C@H](Cc2ccccc2)NC(=O)[C@H](Cc2c[nH]c3ccccc23)NC(=O)[C@@H](N)CCCCNC(=O)CNC(=O)CC[C@@H](C(=O)NCC(=O)O)NC(=O)[C@H](Cc2c[nH]c3ccccc23)NC(=O)[C@H](Cc2ccccc2)NC(=O)[C@H](CS)NC1=O` [compound 174] (HELM PEPTIDE1{K.W.F.L.I.C.F.W.E.G}|CHEM1{[O=C(CN[*:2])[*:1]]}$PEPTIDE1,CHEM1,1:R3-1:R1|PEPTIDE1,CHEM1,9:R3-1:R2$$$V2.0) yielded an EC50 in data set [1] of 7.5 to 15 µM. Also, the viability in data set [2] amounted to 102%. Besides, on β-catenin, the “β-Cat FP Hill slope” value was 0.7 and the Kd lay within 1 to 10 µM.
As to `CC[C@H](C)[C@@H]1NC(=O)[C@H](CC(C)C)NC(=O)[C@H](Cc2ccccc2)NC(=O)[C@H](Cc2c[nH]c3ccccc23)NC(=O)[C@@H](NC(C)=O)CC(=O)NCCCC[C@@H](C(=O)NCC(=O)O)NC(=O)[C@H](Cc2c[nH]c3ccccc23)NC(=O)[C@H](Cc2ccccc2)NC(=O)[C@H](CS)NC1=O` [compound 175] (HELM PEPTIDE1{[ac].D.W.F.L.I.C.F.W.K.G}$PEPTIDE1,PEPTIDE1,2:R3-10:R3$$$V2.0), the EC50 in data set [1] lay in the range of 7.5 to 15 µM. The viability in data set [2] is 100%. For the same compound, on β-catenin, the “β-Cat FP Hill slope” value amounted to 0.7 and the Kd lay in the range of 10 to 30 µM.

The term EC50 denotes the concentration needed to bring the measured effect to its halfway point. Higher therefore signals a need for much substance. Broadly, the viability is a read-out of living cells in per cent, often relative to untreated cells. Broadly, the Kd is the equilibrium constant for the complex coming apart.
